# PubChem BioAssay (NCI)
#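 Cultured in 96-well plates, cells were exposed to test compound for 48 hours across five concentrations. At the TGI there is no net growth.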
# How the values were obtained:
# Assay in all cases: NCI-60 cell line screen, 48 h
# XF 498 CNS = system: XF 498 CNS
# HL-60(TB) leukemia = system: HL-60(TB) leukemia
# COLO 205 colon = system: COLO 205 colon
# SF-295 CNS = system: SF-295 CNS
# MOLT-4 leukemia = system: MOLT-4 leukemia
# NCI-H522 lung = system: NCI-H522 lung
# OVCAR-4 ovarian = system: OVCAR-4 ovarian
# CAKI-1 renal = system: CAKI-1 renal
# NCI-H226 lung = system: NCI-H226 lung
# A549 NSCLC = system: A549 NSCLC
# U251 CNS = system: U251 CNS
# IGROV1 ovarian = system: IGROV1 ovarian
# HOP-62 NSCLC = system: HOP-62 NSCLC
# LXFL 529 NSCLC = system: LXFL 529 NSCLC
# MALME-3M melanoma = system: MALME-3M melanoma
# UACC-257 melanoma = system: UACC-257 melanoma
# SNB-19 CNS = system: SNB-19 CNS
# SN12C renal = system: SN12C renal
# SK-OV-3 ovarian = system: SK-OV-3 ovarian
# M19-MEL melanoma = system: M19-MEL melanoma
# DLD-1 colon = system: DLD-1 colon
# OVCAR-3 ovarian = system: OVCAR-3 ovarian
# UO-31 renal = system: UO-31 renal
# SF-539 CNS = system: SF-539 CNS
# KM12 colon = system: KM12 colon
# DMS 114 small cell lung = system: DMS 114 small cell lung
# ACHN renal = system: ACHN renal
# EKVX NSCLC = system: EKVX NSCLC
# SK-MEL-2 melanoma = system: SK-MEL-2 melanoma
# CCRF-CEM leukemia = system: CCRF-CEM leukemia
# OVCAR-5 ovarian = system: OVCAR-5 ovarian
# LOX IMVI melanoma = system: LOX IMVI melanoma
# RPMI-8226 leukemia = system: RPMI-8226 leukemia
# HOP-92 NSCLC = system: HOP-92 NSCLC
# HCT-116 colon = system: HCT-116 colon
# A498 renal = system: A498 renal
# HCC-2998 colon = system: HCC-2998 colon
# 786-0 renal = system: 786-0 renal
# NCI-H23 lung = system: NCI-H23 lung
# SNB-75 CNS = system: SNB-75 CNS
# OVCAR-8 ovarian = system: OVCAR-8 ovarian
# HT29 colon = system: HT29 colon
# RXF-631 renal = system: RXF-631 renal
# KM20L2 colon = system: KM20L2 colon
# TK-10 renal = system: TK-10 renal
# NCI-H460 lung = system: NCI-H460 lung
# SF-268 CNS = system: SF-268 CNS
# SK-MEL-28 melanoma = system: SK-MEL-28 melanoma
# RXF 393 renal = system: RXF 393 renal
# M14 melanoma = system: M14 melanoma
# SK-MEL-5 melanoma = system: SK-MEL-5 melanoma
# K-562 leukemia = system: K-562 leukemia
# SW-620 colon = system: SW-620 colon
# HOP-18 NSCLC = system: HOP-18 NSCLC
# DMS 273 small cell lung = system: DMS 273 small cell lung
# UACC-62 melanoma = system: UACC-62 melanoma
# SNB-78 CNS = system: SNB-78 CNS
# SR leukemia = system: SR leukemia
# HCT-15 colon = system: HCT-15 colon
structure (smiles),measurement,setting,value
CC1=C(C(=O)Nc2ccc([N+](=O)[O-])cc2)C(c2ccccc2F)C(C(=O)Nc2ccc([N+](=O)[O-])cc2)=C(C)N1,TGI,XF 498 CNS,6.94 µM
same,TGI,HL-60(TB) leukemia,24.7 µM
same,TGI,COLO 205 colon,29.7 µM
same,TGI,SF-295 CNS,63 µM
same,TGI,MOLT-4 leukemia,27.4 µM
same,TGI,NCI-H522 lung,35 µM
same,TGI,OVCAR-4 ovarian,89.8 µM
same,TGI,CAKI-1 renal,68.9 µM
same,TGI,NCI-H226 lung,79.7 µM
same,TGI,A549 NSCLC,> 100 µM
same,TGI,U251 CNS,76.6 µM
same,TGI,IGROV1 ovarian,> 100 µM
same,TGI,HOP-62 NSCLC,47.8 µM
same,TGI,LXFL 529 NSCLC,59.6 µM
same,TGI,MALME-3M melanoma,42.6 µM
same,TGI,UACC-257 melanoma,48.7 µM
same,TGI,SNB-19 CNS,> 100 µM
same,TGI,SN12C renal,48.3 µM
same,TGI,SK-OV-3 ovarian,79.7 µM
same,TGI,M19-MEL melanoma,55.5 µM
same,TGI,DLD-1 colon,> 100 µM
same,TGI,OVCAR-3 ovarian,39.8 µM
same,TGI,UO-31 renal,51.7 µM
same,TGI,SF-539 CNS,> 100 µM
same,TGI,KM12 colon,53.9 µM
same,TGI,DMS 114 small cell lung,87.8 µM
same,TGI,ACHN renal,39.8 µM
same,TGI,EKVX NSCLC,> 100 µM
same,TGI,SK-MEL-2 melanoma,24.7 µM
same,TGI,CCRF-CEM leukemia,48.7 µM
same,TGI,OVCAR-5 ovarian,> 100 µM
same,TGI,LOX IMVI melanoma,31.3 µM
same,TGI,RPMI-8226 leukemia,27.5 µM
same,TGI,HOP-92 NSCLC,31.1 µM
same,TGI,HCT-116 colon,31.5 µM
same,TGI,A498 renal,34.9 µM
same,TGI,HCC-2998 colon,29.1 µM
same,TGI,786-0 renal,> 100 µM
same,TGI,NCI-H23 lung,44.4 µM
same,TGI,SNB-75 CNS,83.9 µM
same,TGI,OVCAR-8 ovarian,> 100 µM
same,TGI,HT29 colon,95.2 µM
same,TGI,RXF-631 renal,> 100 µM
same,TGI,KM20L2 colon,29.8 µM
same,TGI,TK-10 renal,> 100 µM
same,TGI,NCI-H460 lung,69.7 µM
same,TGI,SF-268 CNS,> 100 µM
same,TGI,SK-MEL-28 melanoma,> 100 µM
same,TGI,RXF 393 renal,79.2 µM
same,TGI,M14 melanoma,49.4 µM
same,TGI,SK-MEL-5 melanoma,40.6 µM
same,TGI,K-562 leukemia,> 100 µM
same,TGI,SW-620 colon,> 100 µM
C[C@H]1C(=O)CC[C@]2(C)CCC(C(C)(C)O)CC12O (stereo not given in full),TGI,HL-60(TB) leukemia,> 100 µM
same,TGI,COLO 205 colon,> 100 µM
same,TGI,SF-295 CNS,> 100 µM
same,TGI,MOLT-4 leukemia,> 100 µM
same,TGI,NCI-H522 lung,> 100 µM
same,TGI,OVCAR-4 ovarian,> 100 µM
same,TGI,CAKI-1 renal,> 100 µM
same,TGI,NCI-H226 lung,> 100 µM
same,TGI,A549 NSCLC,> 100 µM
same,TGI,U251 CNS,> 100 µM
same,TGI,IGROV1 ovarian,> 100 µM
same,TGI,HOP-18 NSCLC,> 100 µM
same,TGI,HOP-62 NSCLC,> 100 µM
same,TGI,LXFL 529 NSCLC,> 100 µM
same,TGI,MALME-3M melanoma,> 100 µM
same,TGI,UACC-257 melanoma,> 100 µM
same,TGI,DMS 273 small cell lung,> 100 µM
same,TGI,SNB-19 CNS,> 100 µM
same,TGI,SN12C renal,> 100 µM
same,TGI,UACC-62 melanoma,> 100 µM
same,TGI,SK-OV-3 ovarian,> 100 µM
same,TGI,DLD-1 colon,> 100 µM
same,TGI,OVCAR-3 ovarian,> 100 µM
same,TGI,UO-31 renal,> 100 µM
same,TGI,SF-539 CNS,> 100 µM
same,TGI,KM12 colon,> 100 µM
same,TGI,DMS 114 small cell lung,> 100 µM
same,TGI,ACHN renal,> 100 µM
same,TGI,EKVX NSCLC,> 100 µM
same,TGI,SNB-78 CNS,> 100 µM
same,TGI,SK-MEL-2 melanoma,> 100 µM
same,TGI,CCRF-CEM leukemia,> 100 µM
same,TGI,OVCAR-5 ovarian,> 100 µM
same,TGI,LOX IMVI melanoma,> 100 µM
same,TGI,RPMI-8226 leukemia,> 100 µM
same,TGI,HOP-92 NSCLC,> 100 µM
same,TGI,HCT-116 colon,> 100 µM
same,TGI,A498 renal,> 100 µM
same,TGI,HCC-2998 colon,> 100 µM
same,TGI,786-0 renal,> 100 µM
same,TGI,NCI-H23 lung,> 100 µM
same,TGI,SNB-75 CNS,> 100 µM
same,TGI,OVCAR-8 ovarian,> 100 µM
same,TGI,HT29 colon,> 100 µM
same,TGI,RXF-631 renal,> 100 µM
same,TGI,SR leukemia,> 100 µM
same,TGI,KM20L2 colon,> 100 µM
same,TGI,TK-10 renal,> 100 µM
same,TGI,HCT-15 colon,> 100 µM
same,TGI,NCI-H460 lung,> 100 µM
same,TGI,SF-268 CNS,> 100 µM
same,TGI,SK-MEL-28 melanoma,> 100 µM
same,TGI,RXF 393 renal,> 100 µM
same,TGI,M14 melanoma,> 100 µM
same,TGI,SK-MEL-5 melanoma,> 100 µM
same,TGI,K-562 leukemia,> 100 µM
same,TGI,SW-620 colon,> 100 µM
COc1ccc2nc(NC(=O)C(=O)C(C#N)c3ccc(Cl)c(Cl)c3)sc2c1 (stereo not given),TGI,XF 498 CNS,> 100 µM
same,TGI,HL-60(TB) leukemia,> 100 µM
same,TGI,COLO 205 colon,> 100 µM
same,TGI,SF-295 CNS,> 100 µM
same,TGI,NCI-H522 lung,> 100 µM
same,TGI,OVCAR-4 ovarian,> 100 µM
same,TGI,CAKI-1 renal,> 100 µM
same,TGI,NCI-H226 lung,> 100 µM
same,TGI,A549 NSCLC,> 100 µM
same,TGI,U251 CNS,> 100 µM
same,TGI,IGROV1 ovarian,> 100 µM
same,TGI,HOP-62 NSCLC,> 100 µM
same,TGI,LXFL 529 NSCLC,> 100 µM
same,TGI,MALME-3M melanoma,> 100 µM
same,TGI,UACC-257 melanoma,> 100 µM
same,TGI,DMS 273 small cell lung,> 100 µM
same,TGI,SNB-19 CNS,> 100 µM
same,TGI,SN12C renal,> 100 µM
same,TGI,UACC-62 melanoma,> 100 µM
same,TGI,SK-OV-3 ovarian,> 100 µM
same,TGI,M19-MEL melanoma,> 100 µM
same,TGI,DLD-1 colon,> 100 µM
same,TGI,OVCAR-3 ovarian,> 100 µM
same,TGI,UO-31 renal,> 100 µM
same,TGI,SF-539 CNS,> 100 µM
same,TGI,KM12 colon,> 100 µM
same,TGI,DMS 114 small cell lung,> 100 µM
same,TGI,ACHN renal,> 100 µM
same,TGI,EKVX NSCLC,> 100 µM
same,TGI,SNB-78 CNS,> 100 µM
same,TGI,SK-MEL-2 melanoma,> 100 µM
same,TGI,CCRF-CEM leukemia,> 100 µM
same,TGI,OVCAR-5 ovarian,> 100 µM
same,TGI,LOX IMVI melanoma,> 100 µM
same,TGI,RPMI-8226 leukemia,> 100 µM
same,TGI,HOP-92 NSCLC,> 100 µM
same,TGI,HCT-116 colon,> 100 µM
same,TGI,A498 renal,> 100 µM
same,TGI,786-0 renal,> 100 µM
same,TGI,NCI-H23 lung,> 100 µM
same,TGI,SNB-75 CNS,> 100 µM
same,TGI,OVCAR-8 ovarian,> 100 µM
same,TGI,HT29 colon,> 100 µM
same,TGI,RXF-631 renal,> 100 µM
same,TGI,KM20L2 colon,> 100 µM
same,TGI,TK-10 renal,> 100 µM
same,TGI,HCT-15 colon,> 100 µM
same,TGI,NCI-H460 lung,> 100 µM
same,TGI,SF-268 CNS,> 100 µM
same,TGI,SK-MEL-28 melanoma,> 100 µM
same,TGI,RXF 393 renal,> 100 µM
same,TGI,M14 melanoma,> 100 µM
same,TGI,SK-MEL-5 melanoma,> 100 µM
same,TGI,K-562 leukemia,> 100 µM
same,TGI,SW-620 colon,> 100 µM
